Data taken from patent US20030083324A1, “Photosensitizing ointment” (CeramOptec Industries, Inc., priority 2000, published 2003).

Details: especially when diluted with cream to <20% (w/w)
Excerpt: The phototoxic compounds can be mixed with the carrier in a solubilized form.

COCCO [2-methoxy ethanol]
toxicity to human skin: no toxicity
